Data published in patent US8058475B2, “Substituted cyclohexylmethyl compounds” (Gruenenthal GmbH, priority 2005, dated 2011).
pKi: −log10 of the molar value. Where two headings read alike, the source gives them in different places.

Target: human μ-opiate receptor (Homo sapiens, UniProt P35372)
Experiment: Affinity for the human μ-opiate receptor ([3H]-naloxone displacement, SPA, CHO-K1 membrane preparation)
Type: binding
Settings: for inhibition at 1 µM: read-out: μ-Opioid receptor, % inhibition [1 μM]; for pKi: read-out: μ-Opioid receptor, Ki
[1] = 1 μM test substance, inhibition of specific [3H]-naloxone binding

human μ-opiate receptor, sequence (P35372 whole entry): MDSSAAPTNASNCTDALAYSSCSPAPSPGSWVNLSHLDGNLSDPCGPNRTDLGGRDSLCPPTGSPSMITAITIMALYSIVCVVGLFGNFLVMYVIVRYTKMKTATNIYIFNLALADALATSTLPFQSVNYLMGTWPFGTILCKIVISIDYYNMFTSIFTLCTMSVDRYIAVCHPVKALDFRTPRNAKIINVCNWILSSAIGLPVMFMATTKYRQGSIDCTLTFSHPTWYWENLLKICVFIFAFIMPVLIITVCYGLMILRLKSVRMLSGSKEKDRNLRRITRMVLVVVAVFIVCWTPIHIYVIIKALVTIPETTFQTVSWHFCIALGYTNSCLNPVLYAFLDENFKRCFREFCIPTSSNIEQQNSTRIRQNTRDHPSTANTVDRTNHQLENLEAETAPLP

Compound	pKi	inhibition at 1 µM [1] [%]	further results
Cc1ccc(Oc2ncccc2C(=O)NCC2CCC(C(c3cccs3)N(C)C)CC2)cc1 (single isomer, unassigned) [compound 389, N-[4-(dimethylamino-thiophen-2-yl-methyl)-cyclohexylmethyl]-2-p-tolyloxy-nicotinamide]	7.24		inhibition at 1 µM: 81%
CN(C)C(c1ccccc1)C1CCC(CCNC(=O)c2cccc(Cl)c2)CC1 (single isomer, unassigned) [compound 397, 3-chloro-N-{2-[4-(dimethylamino-phenyl-methyl)-cyclohexyl]-ethyl}-benzamide]	8.14		inhibition at 1 µM: 97%
CN(C)C(c1ccccc1)C1CCC(CCNC(=O)c2cccc(Cl)c2)CC1 (single isomer, unassigned) [compound 398, 3-chloro-N-{2-[4-(dimethylamino-phenyl-methyl)-cyclohexyl]-ethyl}-benzamide]	8.13		μ-Opioid receptor, % inhibition [1 μM] (1 µM): 101%
CN(C)C(c1cccc(F)c1)C1CCC(CCNC(=O)c2cccc(Cl)c2)CC1 (single isomer, unassigned) [compound 400, 3-chloro-N-(2-{4-[dimethylamino-(3-fluoro-phenyl)-methyl]-cyclohexyl}-ethyl)-benzamide]	7.64		inhibition at 1 µM: 94%
CN(C)C(c1cccc(F)c1)C1CCC(CCNC(=O)c2cccc(Cl)c2)CC1 (single isomer, unassigned) [compound 401, 3-chloro-N-(2-{4-[dimethylamino-(3-fluoro-phenyl)-methyl]-cyclohexyl}-ethyl)-benzamide]	7.96		μ-Opioid receptor, % inhibition [1 μM] (1 µM): 97%
Cc1ccccc1C(=O)NCCC1CCC(C(c2ccccc2)N(C)C)CC1 (single isomer, unassigned) [compound 417, N-{2-[4-(dimethylamino-phenyl-methyl)-cyclohexyl]-ethyl}-2-methyl-benzamide]	7.51		inhibition at 1 µM: 91%
Cc1ccccc1C(=O)NCCC1CCC(C(c2ccccc2)N(C)C)CC1 (single isomer, unassigned) [compound 418, N-{2-[4-(dimethylamino-phenyl-methyl)-cyclohexyl]-ethyl}-2-methyl-benzamide]	7.37		μ-Opioid receptor, % inhibition [1 μM] (1 µM): 92%
CN(C)C(c1ccc(F)cc1)C1CCC(CCNC(=O)c2cccc(Cl)c2)CC1 (single isomer, unassigned) [compound 422, 3-chloro-N-(2-{4-[dimethylamino-(4-fluoro-phenyl)-methyl]-cyclohexyl}-ethyl)-benzamide]	7.46		inhibition at 1 µM: 83%
CN(C)C(c1ccc(F)cc1)C1CCC(CCNC(=O)c2cccc(Cl)c2)CC1 (single isomer, unassigned) [compound 423, 3-chloro-N-(2-{4-[dimethylamino-(4-fluoro-phenyl)-methyl]-cyclohexyl}-ethyl)-benzamide]	7.82		μ-Opioid receptor, % inhibition [1 μM]: 83%
CN(C)C(c1cccc(F)c1)C1CCC(CCNC(=O)c2cc(F)c(Cl)cc2Cl)CC1 (single isomer, unassigned) [compound 438, 2,4-dichloro-N-(2-{4-[dimethylamino-(3-fluoro-phenyl)-methyl]-cyclohexyl}-ethyl)-5-fluoro-benzamide]	7.00		inhibition at 1 µM: 87%
CN(C)C(c1cccc(F)c1)C1CCC(CCNC(=O)c2cc(F)c(Cl)cc2Cl)CC1 (single isomer, unassigned) [compound 439, 2,4-dichloro-N-(2-{4-[dimethylamino-(3-fluoro-phenyl)-methyl]-cyclohexyl}-ethyl)-5-fluoro-benzamide]	7.28		μ-Opioid receptor, % inhibition [1 μM] (1 µM): 85%
CN(C)C(c1ccccc1)C1CCC(CCNC(=O)c2cccnc2Sc2ccc(Cl)cc2)CC1 (single isomer, unassigned) [compound 470, 2-(4-chloro-phenylsulfanyl)-N-{2-[4-(dimethylamino-phenyl-methyl)-cyclohexyl]-ethyl}-nicotinamide]	7.15		inhibition at 1 µM: 91%
CN(C)C(c1ccccc1)C1CCC(CCNC(=O)c2cccnc2Sc2ccc(Cl)cc2)CC1 (single isomer, unassigned) [compound 471, 2-(4-chloro-phenylsulfanyl)-N-{2-[4-(dimethylamino-phenyl-methyl)-cyclohexyl]-ethyl}-nicotinamide]	7.06		μ-Opioid receptor, % inhibition [1 μM] (1 µM): 82%
Cc1cc(C2(O)CCC(C(c3ccccc3)N(C)C)CC2)ccc1F (centres unmarked) [compound 151, 4-(dimethylamino-phenyl-methyl)-1-(4-fluoro-3-methyl-phenyl)-cyclohexanol]		71	
CN(C)C(c1cccc(F)c1)C1CCC(O)(Cc2ccccc2)CC1 (centres unmarked) [compound 152, 1-benzyl-4-[dimethylamino-(3-fluoro-phenyl)-methyl]-cyclohexanol]		63	
CN(C)C(c1cccc(F)c1)C1CCC(O)(CCc2ccccc2)CC1 (centres unmarked) [compound 153, 4-[dimethylamino-(3-fluoro-phenyl)-methyl]-1-phenethyl-cyclohexanol]		87	
CCCCCC1(O)CCC(C(c2cccc(F)c2)N(C)C)CC1 (centres unmarked) [compound 154, 4-[dimethylamino-(3-fluoro-phenyl)-methyl]-1-pentyl-cyclohexanol]		50	
CN(C)C(c1cccc(F)c1)C1CCC(O)(c2cc(Cl)cc(Cl)c2)CC1 (centres unmarked) [compound 155, 1-(3,5-dichloro-phenyl)-4-[dimethylamino-(3-fluoro-phenyl)-methyl]-cyclohexanol]		77	
COc1cccc(CC2(O)CCC(C(c3cccc(F)c3)N(C)C)CC2)c1 (centres unmarked) [compound 156, 4-[dimethylamino-(3-fluoro-phenyl)-methyl]-1-(3-methoxy-benzyl)-cyclohexanol]		73	

Compound	pKi	inhibition at 1 µM [1] [%]	further results
CN(C)C(c1cccc(F)c1)C1CCC(O)(c2ccc(Cl)c(C(F)(F)F)c2)CC1 (centres unmarked) [compound 157, 1-(4-chloro-3-trifluoromethyl-phenyl)-4-[dimethylamino-(3-fluoro-phenyl)-methyl]-cyclohexanol]		72	
CN(C)C(c1ccc(Cl)cc1)C1CCC(O)(c2ccccc2)CC1 (centres unmarked) [compound 158, 4-[(4-chloro-phenyl)-dimethylamino-methyl]-1-phenyl-cyclohexanol]		58	
CN(C)C(c1ccc(Cl)cc1)C1CCC(O)(Cc2ccccc2)CC1 (centres unmarked) [compound 159, 1-benzyl-4-[(4-chloro-phenyl)-dimethylamino-methyl]-cyclohexanol]		83	
Cc1cc(C2(O)CCC(C(c3ccc(Cl)cc3)N(C)C)CC2)ccc1F (centres unmarked) [compound 160, 4-[(4-chloro-phenyl)-dimethylamino-methyl]-1-(4-fluoro-3-methyl-phenyl)-cyclohexanol]		67	
Cc1ccccc1C1(O)CCC(C(c2ccc(Cl)cc2)N(C)C)CC1 (centres unmarked) [compound 161, 4-[(4-chloro-phenyl)-dimethylamino-methyl]-1-o-tolyl-cyclohexanol]		60	
CN(C)C(c1ccc(Cl)cc1)C1CCC(O)(c2ccc(F)cc2)CC1 (centres unmarked) [compound 162, 4-[(4-chloro-phenyl)-dimethylamino-methyl]-1-(4-fluoro-phenyl)-cyclohexanol]		59	
CN(C)C(c1ccc(Cl)cc1)C1CCC(O)(CCc2ccccc2)CC1 (centres unmarked) [compound 163, 4-[(4-chloro-phenyl)-dimethylamino-methyl]-1-phenethyl-cyclohexanol]		81	
COc1cccc(C2(O)CCC(C(c3ccc(Cl)cc3)N(C)C)CC2)c1 (centres unmarked) [compound 164, 4-[(4-chloro-phenyl)-dimethylamino-methyl]-1-(3-methoxy-phenyl)-cyclohexanol]		58	
Cc1ccc(C2(O)CCC(C(c3ccc(Cl)cc3)N(C)C)CC2)cc1 (centres unmarked) [compound 165, 4-[(4-chloro-phenyl)-dimethylamino-methyl]-1-p-tolyl-cyclohexanol]		52	
CN(C)C(c1ccc(Cl)cc1)C1CCC(O)(c2cc(F)cc(F)c2)CC1 (centres unmarked) [compound 166, 4-[(4-chloro-phenyl)-dimethylamino-methyl]-1-(3,5-difluoro-phenyl)-cyclohexanol]		62	
CCCCC1(O)CCC(C(c2ccc(Cl)cc2)N(C)C)CC1 (centres unmarked) [compound 167, 1-butyl-4-[(4-chloro-phenyl)-dimethylamino-methyl]-cyclohexanol]		58	
CCCCCCC1(O)CCC(C(c2ccc(Cl)cc2)N(C)C)CC1 (centres unmarked) [compound 168, 4-[(4-chloro-phenyl)-dimethylamino-methyl]-1-hexyl-cyclohexanol]		58	
CCCCCC1(O)CCC(C(c2ccc(Cl)cc2)N(C)C)CC1 (centres unmarked) [compound 169, 4-[(4-chloro-phenyl)-dimethylamino-methyl]-1-pentyl-cyclohexanol]		71	
CCCCCC1(O)CCC(C(c2ccc(Cl)cc2)N(C)C)CC1 (centres unmarked) [compound 170, 4-[(4-chloro-phenyl)-dimethylamino-methyl]-1-pentyl-cyclohexanol]			μ-Opioid receptor, % inhibition [1 μM] (1 μM test substance, inhibition of specific [3H]-naloxone binding, 1 µM): 63%
CN(C)C(c1ccc(Cl)cc1)C1CCC(O)(c2cccc(F)c2)CC1 (centres unmarked) [compound 171, 4-[(4-chloro-phenyl)-dimethylamino-methyl]-1-(3-fluoro-phenyl)-cyclohexanol]		67	
CN(C)C(c1ccc(Cl)cc1)C1CCC(O)(Cc2ccc(F)cc2)CC1 (centres unmarked) [compound 172, 4-[(4-chloro-phenyl)-dimethylamino-methyl]-1-(4-fluoro-benzyl)-cyclohexanol]		77	
COc1cccc(CC2(O)CCC(C(c3ccc(Cl)cc3)N(C)C)CC2)c1 (centres unmarked) [compound 173, 4-[(4-chloro-phenyl)-dimethylamino-methyl]-1-(3-methoxy-benzyl)-cyclohexanol]		84	
COc1ccc(CN(C(C)=O)C2CCC(C(c3ccccc3)N(C)C)CC2)cc1 (centres unmarked) [compound 176, N-(4-((dimethylamino)(phenyl)methyl)cyclohexyl)-N-(4-methoxybenzyl)-acetamide]	7.72		inhibition at 1 µM: 86%
CC(=O)N(C(C)Cc1c[nH]c2ccccc12)C1CCC(C(c2ccccc2)N(C)C)CC1 (centres unmarked) [compound 177]	8.14		μ-Opioid receptor, % inhibition [1 μM] (1 µM): 86%
